Results as given in patent US6737383B1, “Herbicidal oxadiazolidines” (priority 1999, dated 2004).

Assays:
[1] = system: surinam grass; experiment: Test B pre/postemergence surinam grass; format: in vivo, Brachiaria decumbens
In short: (§1)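 Test chemicals in a non-phytotoxic solvent mixture with surfactant were sprayed preemergence onto planted seeds and postemergence onto plants 2 to 18 cm tall (1- to 4-leaf stage). After twelve to sixteen days in a greenhouse, injury was visually rated against untreated controls from 0 (no effect) to 10 (complete control).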

[2] = system: cocklebur; experiment: Test B pre/postemergence cocklebur; format: in vivo, Xanthium strumarium
In short: as §1

[3] = system: corn; experiment: Test B pre/postemergence corn; format: in vivo, Zea mays
In short: as §1

[4] = system: crabgrass; experiment: Test B pre/postemergence crabgrass; format: in vivo, Digitaria sanguinalis
In short: as §1

[5] = system: Alexandergrass; experiment: Test D Alexandergrass; format: in vivo, Brachiaria plantaginea; settings: Preemergence, 0 to 100 scale
In short: (§2)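 Weed seeds planted in sandy loam; species kept apart in individual pots or compartments. Preemergence tests: treatment to soil surface within one day. Greenhouse growth, then visual injury scoring at 14–21 days (0–100).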

[6] = system: goosegrass; experiment: Test D goosegrass; format: in vivo, Eleusine indica; settings: Preemergence, 0 to 100 scale
In short: as §2

[7] = system: Johnson grass; experiment: Test D Johnson grass; format: in vivo, Sorghum halepense; settings: Preemergence, 0 to 100 scale
In short: as §2

[8] = system: sandbur; experiment: Test D sandbur; format: in vivo, Cenchrus echinatus; settings: Preemergence, 0 to 100 scale
In short: as §2

[9] = system: tall mallow; experiment: Test D tall mallow; format: in vivo, Malva sylvestris; settings: Preemergence, 0 to 100 scale
In short: as §2

[10] = system: winter wheat; experiment: Test E winter wheat; format: in vivo, Triticum aestivum; settings: Postemergence
In short: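 For postemergence, plants at the 1- to 4-leaf stage, in a 60:40 mix of sandy loam and potting mix, treated with compound formulated in a surfactant-containing non-phytotoxic solvent. Visual assessment versus untreated controls followed roughly 21–28 days in the greenhouse.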

[11] = system: blackgrass; experiment: Test E blackgrass; format: in vivo, Alopecurus myosuroides; settings: Preemergence
[12] = system: green foxtail; experiment: Test E green foxtail; format: in vivo, Setaria viridis; settings: Preemergence
[13] = system: Italian ryegrass; experiment: Test E Italian ryegrass; format: in vivo, Lolium multiflorum; settings: Preemergence
[14] = system: winter wheat; experiment: Test E winter wheat; format: in vivo, Triticum aestivum; settings: Preemergence
[15] = system: wild oat; experiment: Test E wild oat; format: in vivo, Avena fatua; settings: Preemergence
[16] = system: winter barley; experiment: Test E winter barley; format: in vivo, Hordeum vulgare; settings: Preemergence
[17] = Postemergence, Rate 62 g/ha, scale 0 to 10, 0 is no effect, 10 is complete control
[18] = Postemergence, Rate 250 g/ha, scale 0 to 10, 0 no effect, 10 complete control
[19] = Preemergence, Rate 62 g/ha, scale 0 to 10 (0 no effect, 10 complete control)
[20] = Preemergence, Rate 125 g/ha, scale 0 to 10 (0 no effect, 10 complete control)
[21] = Preemergence, Rate 250 g/ha, scale of 0 to 10 where 0 is no effect and 10 is complete control
[22] = Preemergence, Rate 500 g/ha, scale 0 (no effect) to 10 (complete control)
[23] = Rate 125 g/ha, Postemergence, scale 0 to 10, 0 no effect, 10 complete control
[24] = Rate 500 g/ha, Postemergence, scale 0 to 10, 0 no effect, 10 complete control
[25] = Rate 16 g/ha, 0 no injury, 100 complete control
[26] = Rate 32 g/ha, 0 no injury, 100 complete control
[27] = Rate 64 g/ha, 0 no injury, 100 complete control
[28] = Rate 125 g/ha, 0 no injury, 100 complete control
[29] = Preemergence, Rate 62 g/ha, scale of 0 to 10 where 0 is no effect and 10 is complete control
[30] = Preemergence, Rate 500 g/ha, scale of 0 to 10 where 0 is no effect and 10 is complete control
[31] = Rate 62 g/ha, Postemergence, scale of 0 to 10 where 0 is no effect and 10 is complete control
[32] = Rate 125 g/ha, Postemergence, scale of 0 to 10 where 0 is no effect and 10 is complete control
[33] = Rate 125 g/ha, Preemergence, scale of 0 to 10 where 0 is no effect and 10 is complete control
[34] = Rate 250 g/ha, Postemergence, scale of 0 to 10 where 0 is no effect and 10 is complete control
[35] = Rate 500 g/ha, 0 to 100 scale where 0 is no effect and 100 is complete control
[36] = Rate 1000 g/ha, 0 to 100 scale, 0 no effect, 100 complete control

CC(C)N(C(=O)n1oc(=O)n(Cc2ccccc2)c1=O)c1ccc(F)cc1 [Compound 78]
B. signalgrass plant response rating [1, 17]: 0
B. signalgrass plant response rating [1, 18]: 4
B. signalgrass plant response rating [1, 19]: 0
Plant response rating, B. signalgrass [1, 20]: 1
Plant response rating, B. signalgrass [1, 21]: 5
B. signalgrass plant response rating [1, 22]: 9
B. signalgrass plant response rating [1, 23]: 0
B. signalgrass plant response rating ([1]; Rate 500 g/ha, Postemergence, scale of 0 to 10 where 0 is no effect and 10 is complete control): 6
Cocklebur plant response rating [2, 18]: 2
Cocklebur plant response rating [2, 19]: 0
Plant response rating, Cocklebur [2, 20]: 0
Plant response rating, Cocklebur [2, 21]: 0
Cocklebur plant response rating [2, 22]: 0
Cocklebur plant response rating [2, 23]: 2
Cocklebur plant response rating [2, 24]: 3
Corn plant response rating [3, 17]: 0
Corn plant response rating [3, 18]: 0
Corn plant response rating [3, 19]: 0
Plant response rating, Corn [3, 20]: 0
Plant response rating, Corn [3, 21]: 0
Corn plant response rating [3, 22]: 0
Corn plant response rating [3, 23]: 0
Corn plant response rating [3, 24]: 0
Crabgrass plant response rating [4, 17]: 0
Crabgrass plant response rating [4, 18]: 5
Crabgrass plant response rating [4, 19]: 7
Plant response rating, Crabgrass [4, 20]: 9
Plant response rating, Crabgrass [4, 21]: 9
Crabgrass plant response rating [4, 22]: 10
Crabgrass plant response rating [4, 23]: 2
Crabgrass plant response rating [4, 24]: 9
Plant response rating, Alexandergrass [5, 25]: 0
Plant response rating, Alexandergrass [5, 26]: 0
Plant response rating, Alexandergrass [5, 27]: 30
Plant response rating, Alexandergrass [5, 28]: 75
Plant response rating, Alexandergrass ([5]; Rate 250 g/ha): 75
Plant response rating, Alexandergrass ([5]; Rate 500 g/ha): 100
Plant response rating, Goosegrass [6, 25]: 10
Plant response rating, Goosegrass [6, 26]: 10
Plant response rating, Goosegrass [6, 27]: 85
Plant response rating, Goosegrass [6, 28]: 98
Plant response rating, Goosegrass ([6]; Rate 250 g/ha): 98
Plant response rating, Goosegrass ([6]; Rate 500 g/ha): 100
Plant response rating, Johnsongrass [7, 25]: 0
Plant response rating, Johnsongrass [7, 26]: 0
Plant response rating, Johnsongrass [7, 27]: 0
Plant response rating, Johnsongrass [7, 28]: 0
Plant response rating, Johnsongrass ([7]; Rate 250 g/ha): 20
Plant response rating, Johnsongrass ([7]; Rate 500 g/ha): 20
Plant response rating, Sandbur [8, 25]: 0
Plant response rating, Sandbur [8, 26]: 0
Sandbur plant response rating [8, 27]: 0
Sandbur plant response rating [8, 28]: 0
Plant response rating, Sandbur ([8]; Rate 250 g/ha): 75
Plant response rating, Sandbur ([8]; Rate 500 g/ha): 80
Plant response rating, Tall Mallow [9, 25]: 0
Plant response rating, Tall Mallow [9, 26]: 0
Tall Mallow plant response rating [9, 27]: 0
Tall Mallow plant response rating [9, 28]: 0
Plant response rating, Tall Mallow ([9]; Rate 250 g/ha): 0
Plant response rating, Tall Mallow ([9]; Rate 500 g/ha): 0

Cc1cccc(C)c1-n1c(=O)on(C(=O)N(C(C)C)C2C=CCCC2)c1=O (centres unmarked) [Compound 273]
B. signalgrass plant response rating [1, 29]: 0
B. signalgrass plant response rating [1, 21]: 2
Plant response rating, B. signalgrass [1, 30]: 3
B. signalgrass plant response rating [1, 31]: 0
B. signalgrass plant response rating [1, 32]: 0
B. signalgrass plant response rating [1, 33]: 0
Plant response rating, B. signalgrass [1, 34]: 0
B. signalgrass plant response rating [1, 24]: 0
Cocklebur plant response rating [2, 29]: 0
Cocklebur plant response rating [2, 21]: 0
Plant response rating, Cocklebur [2, 30]: 0
Cocklebur plant response rating [2, 31]: 0
Cocklebur plant response rating [2, 32]: 0
Cocklebur plant response rating [2, 33]: 0
Plant response rating, Cocklebur [2, 34]: 0
Cocklebur plant response rating [2, 24]: 0
Corn plant response rating [3, 29]: 0
Corn plant response rating [3, 21]: 0
Plant response rating, Corn [3, 30]: 0
Corn plant response rating [3, 31]: 0
Corn plant response rating [3, 32]: 0
Corn plant response rating [3, 33]: 0
Plant response rating, Corn [3, 34]: 0
Corn plant response rating [3, 24]: 0
Crabgrass plant response rating [4, 29]: 2
Crabgrass plant response rating [4, 21]: 6
Plant response rating, Crabgrass [4, 30]: 9
Crabgrass plant response rating [4, 32]: 0
Crabgrass plant response rating [4, 33]: 6
Plant response rating, Crabgrass [4, 34]: 1
Crabgrass plant response rating [4, 24]: 3
Plant response rating, Wheat (winter) ([10]; Rate 1000 g/ha, 0 to 100 scale where 0 is no effect and 100 is complete control): 60
Wheat (winter) plant response rating ([10]; Rate 250 g/ha, 0 to 100 scale where 0 is no effect and 100 is complete control): 30
Plant response rating, Wheat (winter) ([10]; Rate 500 g/ha, 0 to 100 scale, 0 is no effect, 100 is complete control): 50
Blackgrass plant response rating (0 to 100 scale) ([11]; Rate 250 g/ha): 55
Plant response rating, Blackgrass [11, 35]: 80
Plant response rating, Blackgrass [11, 36]: 100
Green foxtail plant response rating (0 to 100 scale) ([12]; Rate 250 g/ha): 20
Plant response rating, Green foxtail [12, 35]: 30
Plant response rating, Green foxtail [12, 36]: 60
I. Ryegrass plant response rating (0 to 100 scale) ([13]; Rate 250 g/ha): 30
Plant response rating, I. Ryegrass [13, 35]: 55
Plant response rating, I. Ryegrass [13, 36]: 60
Wheat (winter) plant response rating (0 to 100 scale) ([14]; Rate 250 g/ha): 50
Plant response rating, Wheat (winter) [14, 35]: 60
Plant response rating, Wheat (winter) [14, 36]: 60
Wild oat plant response rating (0 to 100 scale) ([15]; Rate 250 g/ha): 80
Plant response rating, Wild oat [15, 35]: 70
Plant response rating, Wild oat [15, 36]: 80
Barley (winter) plant response rating (0 to 100 scale) ([16]; Rate 250 g/ha): 70
Plant response rating, Barley (winter) [16, 35]: 65
Plant response rating, Barley (winter) [16, 36]: 80
